Test [1] relates to A-431 [B-Raf wildtype]. Nature of the test: Anti-proliferative activity, SRB assay, 72 hours. It is filed as cell-based. The following applies: Homo sapiens, read-out: CELLULAR IC50 [μM] A-431 [B-Raf wildtype]. On the procedure:
(§1) Cells were exposed to the test compounds at various concentrations appropriate to determine an IC50, for 72 hours, and cell proliferation was measured using the SRB assay according to Shekan et al (J Natl Cancer Inst (1990) 82, 1107-112) in order to estimate the IC50 values shown in Table 3.
(§2) Briefly, cells were plated in 96 well dishes 24 hours prior to compound addition at the densities specified in Table 11.1.
(§3) The assay was terminated with the addition of ice cold 10% TCA after growth medium has been removed and the plates were incubated over night at 4° C. The plates were then washed 5 times with water and 100 μl of a Sulforhodamine B solution ([…]) was added to each well. The plates were then incubated for 10 minutes at room temperature before removal of unbound dye by washing with 1% acetic acid. The bound dye was solubilized with 10 mM Trizma base and the absorbance read at OD520.
(§4) Inhibitory activity of the compounds was calculated as % inhibition of cell proliferation compared to cells treated with the solvent (DMSO).

The subject of test [2] is HT-29 [B-Raf V600E mutant]. Briefly: Anti-proliferative activity, SRB assay, 72 hours. It is filed as cell-based. To be noted: Homo sapiens, read-out: CELLULAR IC50 [μM] HT-29 [B-Raf V600E mutant]. Here is the method: We observed the surprising finding that compounds of the invention were useful in inhibiting proliferation of HT-29 tumor cells (see Table 3).
as §1, §2, §3, §4
(The SRB assay estimates cell density from bound dye.)

The target in test [3] is T1, C-Raf (Homo sapiens, UniProt P04049).
T1 construct: purchased Proteros biostructures GmbH (selectivity panel service)
Briefly: Biochemical inhibition, standard selectivity panel (Proteros). On the set-up: dose or concentration left out as unconfirmed. Here is the method:
(§5) For example, selected compound of the present invention were tested in a standard selectivity panel including c-Raf, p38, and 22 other kinases (Proteros biostructures GmbH, Martinsried/Munich, Germany), under conditions of non-disclosure, non-dissemination and non-use.
(§6) In brief, selected compounds of the present invention were tested […] in triplicates against c-Raf, p38 as well as against Ab1, Akt1, Aur A, c-Kit, c-Raf, Cdk1/CycB, Chk1, FGFR3, Flt3, Fyn, IGF1-R, INSR, Lyn, MAPK-ERK1, PAK-4, PKCalpha, Plk1, Ret, ROCK2, RSK 1, c-Src, TIE2, and VEGF-R2.

The target in test [4] is T2, p38 (Homo sapiens, UniProt Q16539).
T2 construct: purchased Proteros biostructures GmbH (selectivity panel service)
Described as above. On the set-up: dose or concentration left out as unconfirmed. Here is the method:
as §5, §6

T1 sequence (P04049 whole entry): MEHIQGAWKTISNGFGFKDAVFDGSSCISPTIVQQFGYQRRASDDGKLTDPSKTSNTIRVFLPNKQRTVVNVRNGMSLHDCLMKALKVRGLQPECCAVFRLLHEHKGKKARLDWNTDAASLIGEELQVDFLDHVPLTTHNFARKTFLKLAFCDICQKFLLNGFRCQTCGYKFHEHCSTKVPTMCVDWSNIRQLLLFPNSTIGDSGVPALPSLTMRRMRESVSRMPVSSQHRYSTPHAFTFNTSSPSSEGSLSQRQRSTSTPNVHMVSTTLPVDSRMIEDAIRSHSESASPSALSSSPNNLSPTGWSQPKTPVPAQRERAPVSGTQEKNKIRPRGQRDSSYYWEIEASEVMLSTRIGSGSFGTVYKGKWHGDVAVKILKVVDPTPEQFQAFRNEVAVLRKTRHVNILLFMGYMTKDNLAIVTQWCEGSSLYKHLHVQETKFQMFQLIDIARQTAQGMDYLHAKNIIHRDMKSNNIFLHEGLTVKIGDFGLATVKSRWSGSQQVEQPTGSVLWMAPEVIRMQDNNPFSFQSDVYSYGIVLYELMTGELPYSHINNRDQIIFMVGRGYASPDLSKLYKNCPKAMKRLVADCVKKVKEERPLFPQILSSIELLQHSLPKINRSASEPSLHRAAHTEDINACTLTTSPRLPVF
T2 sequence (Q16539 whole entry): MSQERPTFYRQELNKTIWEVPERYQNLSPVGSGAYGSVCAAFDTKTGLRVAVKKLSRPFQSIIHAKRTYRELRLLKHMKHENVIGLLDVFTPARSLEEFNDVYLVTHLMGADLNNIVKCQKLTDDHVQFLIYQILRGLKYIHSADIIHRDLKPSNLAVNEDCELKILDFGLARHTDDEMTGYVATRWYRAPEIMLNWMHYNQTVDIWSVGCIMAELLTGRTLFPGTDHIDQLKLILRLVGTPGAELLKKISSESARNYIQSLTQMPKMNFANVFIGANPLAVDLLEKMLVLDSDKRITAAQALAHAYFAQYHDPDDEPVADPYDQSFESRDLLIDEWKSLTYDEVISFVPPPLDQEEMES

Usually IC50 stands for the concentration that gives 50% inhibition. In general, inhibition refers to the drop in the measured response relative to a control, in per cent. Take `COn1c(=O)c(-c2cc(NC(=O)c3ccc(Oc4ccccc4)cc3)ccc2Cl)cc2cnc(NCCN(C)C)nc21` [Compound 27, N-{4-Chloro-3-[2-(2-dimethylamino-ethylamino)-8-methoxy-7-oxo-7,8-dihydro-pyrido[2,3-d]pyrimidin-6-yl]-phenyl}-4-phenoxy-benzamide]: the IC50 in test [1] was below 10 µM; in test [2], below 5 µM. In addition, the inhibition in test [3] and in test [4] was above 70% each time.
As for `COn1c(=O)c(-c2cc(NC(=O)c3ccc(F)c(C(F)(F)F)c3)ccc2Cl)cc2cnc(NCCN(C)C)nc21` [Compound 17, N-{4-Chloro-3-[2-(2-dimethylamino-ethylamino)-8-methoxy-7-oxo-7,8-dihydro-pyrido[2,3-d]pyrimidin-6-yl]-phenyl)-4-fluoro-3-trifluoromethyl-benzamide], the figures for the IC50 in test [1] and in test [2] were above 10 µM and below 5 µM, respectively. Further, the inhibition in test [3] and in test [4] was above 70% in each case.
Consider `COn1c(=O)c(-c2cc(NC(=O)c3cc(Cl)nc(N4CCOCC4)c3)ccc2Cl)cc2cnc(NCCN(C)C)nc21` [Compound 61, 2-Chloro-N-(4-chloro-3-(2-(2-(dimethylamino)ethylamino)-8-methoxy-7-oxo-7,8-dihydropyrido[2,3-d]pyrimidin-6-yl)phenyl)-6-morpholin-4-yl-isonicotinamide], for which the IC50 is above 10 µM in test [1] and below 5 µM in test [2]. For the same molecule, the inhibition in test [3] and in test [4] was above 70% in each case.
In the case of `COn1c(=O)c(-c2cc(NC(=O)c3ccc(C(C)(C)C)cc3)ccc2Cl)cc2cnc(NCCN(C)C)nc21` [Compound 37, 4-tert-Butyl-N-{4-chloro-3-[2-(2-dimethylamino-ethylamino)-8-methoxy-7-oxo-7,8-dihydro-pyrido[2,3-d]pyrimidin-6-yl]-phenyl)-benzamide], the figures for the IC50 in test [1] and in test [2] were below 10 µM and below 5 µM, respectively. Besides, the inhibition in test [3] and in test [4] was above 70% in each case.
As to `COn1c(=O)c(-c2cc(NC(=O)c3cc(C(F)(F)F)ccc3F)ccc2Cl)cc2cnc(NCCN(C)C)nc21` [Compound 23, N-{4-Chloro-3-[2-(2-dimethylamino-ethylamino)-8-methoxy-7-oxo-7,8-dihydro-pyrido[2,3-d]pyrimidin-6-yl]-phenyl]-2-fl uoro-5-trifluoromethyl-benzamide], the IC50 in test [1] was above 10 µM; in test [2] it was below 5 µM. In addition, the inhibition in test [3] and in test [4] was above 70% throughout.
As for `COn1c(=O)c(-c2cc(NC(=O)c3cc(C(C)(C)C)nn3-c3ccccc3)ccc2Cl)cc2cnc(NCCN(C)C)nc21` [Compound 31, 5-tert-Butyl-2-phenyl-2H-pyrazole-3-carboxylic acid {4-chloro-3-[2-(2-dimethylamino-ethylamino)-8-methoxy-7-oxo-7,8-dihydro-pyrido[2,3-d]pyrimidin-6-yl]-phenyl}-amide], the IC50 was below 10 µM in test [1] and below 5 µM in test [2]. The inhibition in test [3] was around 70%; in test [4], above 70%.
On to `COn1c(=O)c(-c2cc(NC(=O)Cc3ccc(Cl)c(C(F)(F)F)c3)ccc2Cl)cc2cnc(NCCN(C)C)nc21` [Compound 16, N-{4-Chloro-3-[2-(2-dimethylamino-ethylamino)-8-methoxy-7-oxo-7,8-dihydro-pyrido[2,3-d]pyrimidin-6-yl]-phenyl)-2-(4-chloro-3-trifluoromethyl-phenyl)-acetamide], for which the IC50 in test [1] is above 10 µM; in test [2], below 5 µM. For the same molecule, the inhibition in test [3] and in test [4] was above 70% throughout.
Turning to `COn1c(=O)c(-c2cc(NC(=O)Nc3ccc(C)c(C(F)(F)F)c3)ccc2Cl)cc2cnc(NCCN(C)C)nc21` [Compound 47, 1-{4-Chloro-3-[2-(2-dimethylamino-ethylamino)-8-methoxy-7-oxo-7,8-dihydro-pyrido[2,3-d]pyrimidin-6-yl]-phenyl}-3-(4-methyl-3-trifluoromethyl-phenyl)-urea], the IC50 in test [1] is above 5 µM; in test [2] it was below 5 µM. The inhibition in test [3] and in test [4] was above 70% in each case.
With `COn1c(=O)c(-c2cc(NC(=O)Nc3ccc(F)c(C(F)(F)F)c3)ccc2Cl)cc2cnc(NCCN(C)C)nc21` [Compound 42, 1-{4-Chloro-3-[2-(2-dimethylamino-ethylamino)-8-methoxy-7-oxo-7,8-dihydro-pyrido[2,3-d]pyrimidin-6-yl]-phenyl}-3-(4-fluoro-3-trifluoromethyl-phenyl)-urea], the results for the IC50 in test [1] and in test [2] were below 10 µM and below 5 µM, respectively. Further, the inhibition in test [3] and in test [4] was above 70% each time.
On to `COn1c(=O)c(-c2cc(NC(=O)c3ccnc(N4CCOCC4)c3)ccc2Cl)cc2cnc(NCCN(C)C)nc21` [Compound 26, N-{4-Chloro-3-[2-(2-dimethylamino-ethylamino)-8-methoxy-7-oxo-7,8-dihydro-pyrido[2,3-d]pyrimidin-6-yl]-phenyl)-2-morpholin-4-yl-isonicotinamide], for which the values for the IC50 in test [1] and in test [2] were above 10 µM and below 10 µM, respectively. For the same molecule, the inhibition in test [3] and in test [4] was above 70% throughout.
`COn1c(=O)c(-c2cc(NC(=O)c3cccc(Cl)c3)ccc2Cl)cc2cnc(NCCN(C)C)nc21` [Compound 18, 3-Chloro-N-{4-chloro-3-[2-(2-dimethylamino-ethylamino)-8-methoxy-7-oxo-7,8-dihydro-pyrido[2,3-d]pyrimidin-6-yl]-phenyl}-benzamide]: the IC50 in test [1] was above 10 µM; in test [2], below 10 µM. Moreover, the inhibition in test [3] and in test [4] was above 70% throughout.
With `CCN(CC)c1cc(C(=O)Nc2ccc(Cl)c(-c3cc4cnc(NCCN(C)C)nc4n(OC)c3=O)c2)cc(Cl)n1` [Compound 8, 2-Chloro-N-(4-chloro-3-(2-(2-(dimethylamino)ethylamino)-8-methoxy-7-oxo-7,8-dihydropyrido[2,3-d]pyrimidin-6-yl)phenyl)-6-diethylamino-isonicotinamide], the IC50 was below 10 µM in test [1] and below 5 µM in test [2]. In addition, the inhibition in test [3] and in test [4] was above 70% each time.
`COn1c(=O)c(-c2cc(NC(=O)Nc3cc(C(F)(F)F)cc(C(F)(F)F)c3)ccc2Cl)cc2cnc(NCCN(C)C)nc21` [Compound 50, 1-(3,5-Bis-trifluoromethyl-phenyl)-3-{4-chloro-3-[2-(2-dimethylamino-ethylamino)-8-methoxy-7-oxo-7,8-dihydro-pyrido[2,3-d]pyrimidin-6-yl]-phenyl}-urea]: the IC50 in test [1] is below 10 µM; in test [2], below 5 µM. For the same molecule, the inhibition in test [3] and in test [4] was above 70% in each case.
For the molecule `COn1c(=O)c(-c2cc(NC(=O)Nc3ccc(C(C)(C)C)cc3)ccc2Cl)cc2cnc(NCCN(C)C)nc21` [Compound 44, 1-(4-tert-Butyl-phenyl)-3-{4-chloro-3-[2-(2-dimethylamino-ethylamino)-8-methoxy-7-oxo-7,8-dihydro-pyrido[2,3-d]pyrimidin-6-yl]-phenyl}-urea], the IC50 in test [1] and in test [2] was below 5 µM in each case. The inhibition in test [3] and in test [4] was above 70% throughout.
For the molecule `COn1c(=O)c(-c2cc(NC(=O)c3cc(Cl)nc(NC(C)C)c3)ccc2Cl)cc2cnc(NCCN(C)C)nc21` [Compound 64, 2-Chloro-N-(4-chloro-3-(2-(2-(dimethylamino)ethylamino)-8-methoxy-7-oxo-7,8-dihydropyrido[2,3-d]pyrimidin-6-yl)phenyl)-6-isopropylamino-isonicotinamide], the IC50 is above 10 µM in test [1] and below 5 µM in test [2]. In addition, the inhibition in test [3] and in test [4] was above 70% in each case.
For `COn1c(=O)c(-c2cc(NC(=O)c3ccc(OCc4cccc(F)c4)c(Cl)c3)ccc2Cl)cc2cnc(NCCN(C)C)nc21` [Compound 32, 3-Chloro-N-{4-chloro-3-[2-(2-dimethylamino-ethylamino)-8-methoxy-7-oxo-7,8-dihydro-pyrido[2,3-d]pyrimidin-6-yl]-phenyl}-4-(3-fluoro-benzyloxy)-benzamide], the IC50 in test [1] is below 10 µM; in test [2], below 5 µM. For the same molecule, the inhibition in test [3] and in test [4] was above 70% each time.
Take `COc1ccc(NC(=O)Nc2ccc(Cl)c(-c3cc4cnc(NCCN(C)C)nc4n(OC)c3=O)c2)cc1Cl` [Compound 4, 1-{4-Chloro-3-[2-(2-dimethylamino-ethylamino)-8-methoxy-7-oxo-7,8-dihydro-pyrido[2,3-d]pyrimidin-6-yl]-phenyl}-3-(3-chloro-4-methoxy-phenyl)-urea]: the IC50 is above 10 µM in test [1] and below 10 µM in test [2]. The inhibition in test [3] and in test [4] was above 70% in each case.

(Values after patent publication US8232283B2, “Raf inhibitors” (Forma Therapeutics, Inc., priority 2008, dated 2012).)
